# Tests used:
# Design in all cases: species or system BALB/c nude mice
# [1] = tested on: NCI-H1975 lung cancer patient-derived xenograft (CDX); assay: Pharmacodynamics study in vivo, NCI-H1975 xenograft (CDX) model; conditions: AZD9291 5 mg/kg
# Method: (§1) For example, after 21 days of administration, the tumor volume of the representative compounds 30, 33, 34, 40, 42 and 43 decreased from the beginning of about 149 mm^3 to 3-39 mm^3.
# (§2) The pharmacological experiments in vivo were performed on BALB/c nude mice that subcutaneously implanted NCI-H1975 lung cancer […] xenograft (CDX).
# (§3) BALB/c nude mice, female, 6-8 weeks, weighted about 18-22 grams, the mice were kept in a special pathogen-free environment, and in a single ventilation cage (5 mice per cage). The bedding and water of all the cages were disinfected before use. All animals were free to obtain standard certified commercial laboratory diets. A total of 100 mice were purchased from Beijing Vital for research. The tumor tissue (20-30 mm^3) was implanted subcutaneously in the […] of each mouse for tumor growth. The experiment was started when the average tumor volume reached about 150-200 mm^3. The test compound was orally administered daily (compound 30 was administered at 10 mg/kg, compound 33, 34, 40, 42 and 43 were administered at 20 mg/kg and compound AZD9291 was administered continuously for 21 days at 5 mg/kg, the data were shown in Table 3). The tumor volume was measured twice a week with a two-dimensional caliper and the volume was measured in cubic millimeters and calculated by the following formula: V=V=0.5 a×b2, where a and b were the major and minor diameters of the tumor, respectively.
# [2] = tested on: NCI-H1975 lung cancer xenograft (CDX); assay: as above; conditions: day 0, oral daily: compound 30 10 mg/kg, 33, 34, 40, 42, 43 20 mg/kg, AZD9291 5 mg/kg
# Method: as §1, §2, §3
# [3] = tested on: human skin squamous cell A431 xenograft (CDX); assay: Selectivity study in vivo, A431 xenograft (CDX) model; conditions: Table 5 experiment, AZD9291 5 mg/kg
# Method: In this model, the less inhibitory effect on the tumor, the better the selectivity in vivo.
# The selective experiments in vivo were performed on BALB/c nude mice that subcutaneously implanted human skin squamous cell A431 xenograft (CDX).
# BALB/c nude mice, female, 6-8 weeks, weighted about 18-20 grams, the mice were kept in a special pathogen-free environment and in a single ventilation cage (5 mice per cage). The bedding and water of all the cages were disinfected before use. All animals were free to obtain standard certified commercial laboratory diets. All mice were purchased from mice of Shanghai BK Laboratory Animal Co., LTD for research. The tumor tissue (20-30 mm^3) was implanted subcutaneously in the […] of each mouse for tumor growth. The experiment was started when the average tumor volume reached about 150-200 mm^3. The test compound was orally administered (compounds 17, 30, 37 and 38 were administered once daily at 20 mg/kg, the compound AZD9291 was administered once daily at 5 mg/kg, the compound CO-1686 was administered twice daily at 50 mg/kg, the compound Erlotinib was administered once daily at 75 mg/kg and the compound Afatinib was administered once daily at 7.5 mg/kg, 21 days of continuous administration. The data were shown in Table 4; compounds 33, 34, 40, 42 and 43 were administered once daily at 20 mg/kg and compound AZD9291 was administered once daily at5 mg/kg, 21 days of continuous administration. The tumor volume was measured twice a week with a two-dimensional caliper and the volume was measured in cubic millimeters and calculated by the following formula: V=V=0.5 a×b2, where a and b were the major and minor diameters of the tumor, respectively.
compound,measurement,setting,value
"C=CC(=O)Nc1cc(Nc2nccc(-c3cn(C)c4ccccc34)n2)c(OC)cc1N(C)CCN(C)C [AZD9291, reference compound]",Tumor Volume (mm^3) 4 days,"[1]; day 4, oral daily: compound 30 10 mg/kg, 33, 34, 40, 42, 43 20 mg/kg",86 mm^3
same,Tumor Volume (mm^3) 7 days,"[1]; day 7, oral daily: compound 30 10 mg/kg, 33, 34, 40, 42, 43 20 mg/kg",64 mm^3
same,Tumor Volume (mm^3) 11 days,"[1]; day 11, oral daily: compound 30 10 mg/kg, 33, 34, 40, 42, 43 20 mg/kg",52 mm^3
same,Tumor Volume (mm^3) 14 days,"[1]; day 14, oral daily: compound 30 10 mg/kg, 33, 34, 40, 42, 43 20 mg/kg",66 mm^3
same,Tumor Volume (mm^3) 18 days,"[1]; day 18, oral daily: compound 30 10 mg/kg, 33, 34, 40, 42, 43 20 mg/kg",25 mm^3
same,Tumor Volume (mm^3) 21 days,"[1]; day 21, oral daily: compound 30 10 mg/kg, 33, 34, 40, 42, 43 20 mg/kg",15 mm^3
same,Tumor Volume (mm^3) 0 day,[2],149 mm^3
same,Tumor Volume (mm^3) 4 days,"[3]; day 4, oral once daily: 33, 34, 40, 42, 43 20 mg/kg",153 mm^3
same,Tumor Volume (mm^3) 11 days,"[3]; day 11, oral once daily: 33, 34, 40, 42, 43 20 mg/kg",219 mm^3
same,Tumor Volume (mm^3) 18 days,"[3]; day 18, oral once daily: 33, 34, 40, 42, 43 20 mg/kg",330 mm^3
